Results taken from the NIST ThermoML archive (doi:10.1021/acs.jced.7b00503).

Assay: wn = mass fraction of the nth substance listed
Conditions: Pendant drop shape

[I-].[Na+] [sodium iodide] + O
surface tension liquid-gas [mN/m]
Conditions	293.15 K	298.15 K	303.15 K	313.15 K	323.15 K	333.15 K
w1 = 0.05	73.15	72.4	71.66	70.23	68.78	67.4
w1 = 0.1	73.6	73	72.22	70.81	69.34	67.93
w1 = 0.15	74.17	73.48	72.79	71.36	69.81	68.42
w1 = 0.2	74.7	73.96	73.34	71.85	70.35	68.86
w1 = 0.25	75.15	74.4	73.8	72.45	70.95	69.43
w1 = 0.3	75.5	74.9	74.26	72.92	71.56	69.96
w1 = 0.35	76.29	75.71	75.08	73.76	72.5	71.19
w1 = 0.4	77.1	76.5	75.85	74.6	73.35	72.24
w1 = 0.45	78.25	77.63	77.03	75.96	74.77	73.77
w1 = 0.5	79.35	78.85	78.34	77.3	76.17	75.04
w1 = 0.55	80.66	80.14	79.68	78.66	77.68	77.15

O [water] + [Cl-].[Na+]
w2 = 0
Conditions	surface tension liquid-gas [mN/m]
293.15 K	72.75
298.15 K	71.97
303.15 K	71.15
313.15 K	69.55
323.15 K	67.9
333.15 K	66.17

[Br-].[Na+] [sodium bromide] + O
surface tension liquid-gas [mN/m]
Conditions	w1 = 0.05	w1 = 0.1	w1 = 0.15	w1 = 0.2	w1 = 0.25	w1 = 0.3	w1 = 0.35	w1 = 0.4
293.15 K	74.11	75.5	76.51	77.4	78.93	80.32	82	83.5
303.15 K	72.43	73.5	74.83	75.4	77.25	78.62	80.31	81.93
313.15 K	70.75	72	73.14	74.1	75.68	77.05	78.73	80.36
323.15 K	69.07	70	71.36	72.6	74	75.26	77.05	78.56
333.15 K	67.28	68.4	69.67	70.8	72.31	73.6	75.37	76.87
343.15 K	65.49	66.4	67.85	69.5	70.52	71.87	73.9	75.73
353.15 K	63.71	64.73	65.99	67.34	68.6	70.06	71.81	73.32

O [water] + [I-].[Na+]
w2 = 0
Conditions	surface tension liquid-gas [mN/m]
293.15 K	72.75
298.15 K	71.97
303.15 K	71.15
313.15 K	69.55
323.15 K	67.9
333.15 K	66.17
